Legend:
KB = assay: Cytotoxicity against human KB cells assessed as reduction in cell number after 3 days; type: functional; details: 72 h, read-out: ID50 (the source's name)
[1] = biological target: DNA topoisomerase 2-alpha (Homo sapiens) (UniProt P11388); assay: Inhibition of human DNA topoisomerase 2
[2] = biological target: DNA topoisomerase 2-alpha (Homo sapiens) (UniProt P11388); assay: Inhibition of strand rejoining activity of human DNA topoisomerase 2 assessed as protein-DNA complex formation at 20 uM by cell-based assay; parameters: scale not given: the % may be the effect or the level left
[3] = biological target: DNA topoisomerase 2-alpha (Homo sapiens) (UniProt P11388); assay: Inhibition of strand rejoining activity of human DNA topoisomerase 2 assessed as protein-DNA complex formation at 10 uM by cell-based assay; parameters: scale not given: the % may be the effect or the level left

Sequence of DNA topoisomerase 2-alpha (Homo sapiens) (P11388 whole entry): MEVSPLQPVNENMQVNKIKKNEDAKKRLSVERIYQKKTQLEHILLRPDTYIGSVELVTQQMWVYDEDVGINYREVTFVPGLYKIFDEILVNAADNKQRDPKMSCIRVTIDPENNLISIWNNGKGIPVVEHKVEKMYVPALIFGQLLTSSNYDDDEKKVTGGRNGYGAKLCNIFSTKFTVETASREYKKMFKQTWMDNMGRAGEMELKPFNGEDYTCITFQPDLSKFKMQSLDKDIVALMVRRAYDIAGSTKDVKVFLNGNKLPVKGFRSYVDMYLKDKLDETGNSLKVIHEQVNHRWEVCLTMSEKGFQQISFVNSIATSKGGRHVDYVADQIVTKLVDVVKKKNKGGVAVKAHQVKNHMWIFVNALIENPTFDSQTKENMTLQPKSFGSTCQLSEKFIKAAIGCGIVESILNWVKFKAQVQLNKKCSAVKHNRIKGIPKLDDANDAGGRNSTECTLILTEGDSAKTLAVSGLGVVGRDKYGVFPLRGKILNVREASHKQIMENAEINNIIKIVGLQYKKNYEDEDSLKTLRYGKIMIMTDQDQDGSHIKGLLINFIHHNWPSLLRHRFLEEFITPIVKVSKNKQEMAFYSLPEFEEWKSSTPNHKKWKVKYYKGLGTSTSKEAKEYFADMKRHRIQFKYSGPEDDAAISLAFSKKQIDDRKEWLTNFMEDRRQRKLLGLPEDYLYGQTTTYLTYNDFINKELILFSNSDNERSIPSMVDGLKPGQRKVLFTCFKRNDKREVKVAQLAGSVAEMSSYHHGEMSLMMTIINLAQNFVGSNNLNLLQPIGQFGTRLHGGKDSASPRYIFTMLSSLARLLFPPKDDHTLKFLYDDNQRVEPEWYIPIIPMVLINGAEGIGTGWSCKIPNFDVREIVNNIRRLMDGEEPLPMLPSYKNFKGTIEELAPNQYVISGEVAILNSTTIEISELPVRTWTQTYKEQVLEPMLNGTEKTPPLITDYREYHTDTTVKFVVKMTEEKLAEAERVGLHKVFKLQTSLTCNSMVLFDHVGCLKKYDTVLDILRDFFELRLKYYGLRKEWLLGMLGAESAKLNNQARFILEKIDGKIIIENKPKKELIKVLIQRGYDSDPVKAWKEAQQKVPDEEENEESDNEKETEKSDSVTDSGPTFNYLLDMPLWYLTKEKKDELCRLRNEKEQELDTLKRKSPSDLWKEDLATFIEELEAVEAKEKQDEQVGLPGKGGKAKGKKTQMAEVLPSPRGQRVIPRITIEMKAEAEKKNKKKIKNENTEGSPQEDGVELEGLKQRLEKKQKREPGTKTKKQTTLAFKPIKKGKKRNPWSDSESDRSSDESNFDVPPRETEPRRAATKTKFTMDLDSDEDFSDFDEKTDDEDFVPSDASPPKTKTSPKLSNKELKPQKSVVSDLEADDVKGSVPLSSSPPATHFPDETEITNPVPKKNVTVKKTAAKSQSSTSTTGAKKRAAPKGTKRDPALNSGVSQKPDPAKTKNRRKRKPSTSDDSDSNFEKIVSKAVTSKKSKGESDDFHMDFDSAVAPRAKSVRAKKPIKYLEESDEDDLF

Structure (SMILES) | IC50 (KB) [µM] | ID50 [1] [µM] | Activity [2] [%] | Activity [3] [%]
COC1=CC([C@@H]2c3cc4c(cc3[C@@H](Nc3ccc(C(C)=O)cc3)[C@H]3COC(=O)[C@@H]32)OCO4)=CC(=O)C1=O | 1.5 | 50 | 69 | –
COC1=CC([C@@H]2c3cc4c(cc3[C@@H](Nc3cccc(Br)c3)[C@H]3COC(=O)[C@@H]32)OCO4)=CC(=O)C1=O | 6.1 | 50 | 15 | –
COC1=CC([C@@H]2c3cc4c(cc3[C@@H](Nc3cc([N+](=O)[O-])cc([N+](=O)[O-])c3)[C@H]3COC(=O)[C@@H]32)OCO4)=CC(=O)C1=O | 1.8 | 50 | 32 | –
COc1cc([C@@H]2c3cc4c(cc3[C@@H](Nc3cc(F)cc(F)c3)[C@H]3COC(=O)[C@H]23)OCO4)cc(OC)c1O | – | 50 | – | 115
COC1=CC([C@@H]2c3cc4c(cc3[C@@H](Nc3ccc(C#N)cc3)[C@H]3COC(=O)[C@@H]32)OCO4)=CC(=O)C1=O | > 2 | 50 | 18 | –
COC1=CC([C@@H]2c3cc4c(cc3[C@@H](Nc3cc(F)cc(F)c3)[C@H]3COC(=O)[C@@H]32)OCO4)=CC(=O)C1=O | 2 | 50 | 57 | –
COc1cc([C@@H]2c3cc4c(cc3[C@@H](Nc3ccc(Cl)cc3)[C@H]3COC(=O)[C@H]23)OCO4)cc(OC)c1O | – | 50 | – | 99
COc1cc([C@@H]2c3cc4c(cc3[C@@H](Nc3ccc(C#N)cc3)[C@H]3COC(=O)[C@H]23)OCO4)cc(O)c1O | 1.8 | 25 | 146 | –
COC(=O)c1cccc(N[C@@H]2c3cc4c(cc3[C@@H](c3cc(O)c(O)c(OC)c3)[C@H]3C(=O)OC[C@@H]32)OCO4)c1 | 2.3 | 25 | 94 | –
COC1=CC([C@@H]2c3cc4c(cc3[C@@H](O)[C@H]3COC(=O)[C@@H]32)OCO4)=CC(=O)C1=O | 2.8 | < 5 | 41 | –
COc1cc([C@@H]2c3cc4c(cc3[C@@H](Nc3ccc([N+](=O)[O-])cc3)[C@H]3COC(=O)[C@H]23)OCO4)cc(O)c1O | 1.3 | 10 | 200 | –
COc1cc([C@@H]2c3cc4c(cc3[C@H](O)[C@H]3COC(=O)[C@H]23)OCO4)cc(O)c1O | – | 50 | 8 | –
COc1cc([C@@H]2c3cc4c(cc3[C@@H](Nc3ccc(C(C)=O)cc3)[C@H]3COC(=O)[C@H]23)OCO4)cc(O)c1O | 1 | 25 | 147 | –
COc1cc([C@@H]2c3cc4c(cc3[C@@H](Nc3ccc(F)cc3)[C@H]3COC(=O)[C@H]23)OCO4)cc(O)c1O | 1.5 | 10 | 117 | –
COC1=CC([C@@H]2c3cc4c(cc3[C@@H](Nc3cc(C(F)(F)F)cc(C(F)(F)F)c3)[C@H]3COC(=O)[C@@H]32)OCO4)=CC(=O)C1=O | 5.5 | > 100 | 4 | –
COC1=CC([C@@H]2c3cc4c(cc3[C@@H](Nc3ccc([N+](=O)[O-])cc3)[C@H]3COC(=O)[C@@H]32)OCO4)=CC(=O)C1=O | 1.3 | 10 | 128 | –
COc1cc([C@@H]2c3cc4c(cc3[C@@H](Nc3ccccc3)[C@H]3COC(=O)[C@H]23)OCO4)cc(O)c1O | 1.8 | 25 | 128 | –
CCOC(=O)c1ccccc1N[C@@H]1c2cc3c(cc2[C@@H](C2=CC(=O)C(=O)C(OC)=C2)[C@H]2C(=O)OC[C@@H]21)OCO3 | 7 | 100 | 4 | –
COC1=CC([C@@H]2c3cc4c(cc3[C@@H](Nc3cncc5ccccc35)[C@H]3COC(=O)[C@@H]32)OCO4)=CC(=O)C1=O | 1.5 | 100 | 95 | –
COc1cc([C@@H]2c3cc4c(cc3[C@@H](Nc3cccc(Br)c3)[C@H]3COC(=O)[C@H]23)OCO4)cc(OC)c1O | – | – | – | 62
CCOC(=O)c1ccc(N[C@@H]2c3cc4c(cc3[C@@H](c3cc(OC)c(O)c(OC)c3)[C@H]3C(=O)OC[C@@H]32)OCO4)cc1 | 0.84 | 5 | – | 207
COC1=CC([C@@H]2c3cc4c(cc3[C@@H](Oc3ccc(F)cc3)[C@H]3COC(=O)[C@@H]32)OCO4)=CC(=O)C1=O | 0.9 | 100 | 30 | –
COC(=O)c1cccc(N[C@@H]2c3cc4c(cc3[C@@H](C3=CC(=O)C(=O)C(OC)=C3)[C@H]3C(=O)OC[C@@H]32)OCO4)c1 | 1.2 | 100 | 67 | –
COc1cc([C@@H]2c3cc4c(cc3[C@@H](O)[C@H]3COC(=O)[C@H]23)OCO4)cc(O)c1O | – | 100 | 50 | –
COC(=O)c1ccc(N[C@@H]2c3cc4c(cc3[C@@H](c3cc(OC)c(O)c(OC)c3)[C@H]3C(=O)OC[C@@H]32)OCO4)cc1O | 5.8 | 50 | – | 129

Structure (SMILES) | IC50 (KB) [µM] | ID50 [1] [µM] | Activity [2] [%] | Activity [3] [%]
COc1cc([C@@H]2c3cc4c(cc3[C@@H](Nc3ccccc3F)[C@H]3COC(=O)[C@H]23)OCO4)cc(OC)c1O | – | – | – | 121
COc1cc([C@@H]2c3cc4c(cc3[C@@H](Nc3cccc([N+](=O)[O-])c3)[C@H]3COC(=O)[C@H]23)OCO4)cc(OC)c1O | 1 | 50 | – | 230
COc1cc([C@@H]2c3cc4c(cc3[C@@H](Nc3ccc([N+](=O)[O-])cc3)[C@H]3COC(=O)[C@H]23)OCO4)cc(OC)c1O | 0.5 | 10 | – | 323
COc1cc([C@@H]2c3cc4c(cc3[C@@H](Nc3ccc(CC#N)cc3)[C@H]3COC(=O)[C@H]23)OCO4)cc(O)c1O | 1.2 | 25 | 109 | –
COC1=CC([C@@H]2c3cc4c(cc3[C@@H](Nc3ccc(F)cc3)[C@H]3COC(=O)[C@@H]32)OCO4)=CC(=O)C1=O | 1.3 | 25 | 92 | –
COC1=CC([C@@H]2c3cc4c(cc3[C@@H](Nc3ccc(CC#N)cc3)[C@H]3COC(=O)[C@@H]32)OCO4)=CC(=O)C1=O | 2 | 25 | 41 | –
COc1cc([C@@H]2c3cc4c(cc3[C@H](O)[C@H]3COC(=O)[C@H]23)OCO4)cc(OC)c1O | – | > 100 | – | 1.1
COc1cc([C@@H]2c3cc4c(cc3[C@@H](Nc3cc(C(F)(F)F)cc(C(F)(F)F)c3)[C@H]3COC(=O)[C@H]23)OCO4)cc(OC)c1O | 3.4 | > 100 | – | 21
COC(=O)c1cccc(N[C@@H]2c3cc4c(cc3[C@@H](c3cc(OC)c(O)c(OC)c3)[C@H]3C(=O)OC[C@@H]32)OCO4)c1 | 2.7 | 50 | – | 129
COC1=CC([C@@H]2c3cc4c(cc3[C@@H](Nc3cccc([N+](=O)[O-])c3)[C@H]3COC(=O)[C@@H]32)OCO4)=CC(=O)C1=O | > 4 | 50 | 33 | –
COC1=CC([C@@H]2c3cc4c(cc3[C@@H](Nc3ccc(Cl)cc3)[C@H]3COC(=O)[C@@H]32)OCO4)=CC(=O)C1=O | > 4 | 25 | 27 | –
COc1cc([C@@H]2c3cc4c(cc3[C@@H](Nc3cccc([N+](=O)[O-])c3)[C@H]3COC(=O)[C@H]23)OCO4)cc(O)c1O | 2 | 50 | 75 | –
COc1cc([C@@H]2c3cc4c(cc3[C@@H](Nc3cccc(F)c3)[C@H]3COC(=O)[C@H]23)OCO4)cc(OC)c1O | – | 50 | – | 158
COC1=CC([C@@H]2c3cc4c(cc3C(=O)[C@H]3COC(=O)[C@@H]32)OCO4)=CC(=O)C1=O | > 4 | 5 | 56 | –
COC1=CC([C@@H]2c3cc4c(cc3[C@@H](Nc3ccc(C(F)(F)F)cc3)[C@H]3COC(=O)[C@@H]32)OCO4)=CC(=O)C1=O | 6.5 | 25 | 51 | –
COC(=O)c1ccc(N[C@@H]2c3cc4c(cc3[C@@H](C3=CC(=O)C(=O)C(OC)=C3)[C@H]3C(=O)OC[C@@H]32)OCO4)cc1O | 1.9 | 100 | 47 | –
COC1=CC([C@@H]2c3cc4c(cc3[C@@H](Nc3ccccc3F)[C@H]3COC(=O)[C@@H]32)OCO4)=CC(=O)C1=O | 1.2 | 100 | 29 | –
COc1cc([C@@H]2c3cc4c(cc3[C@@H](O)[C@H]3COC(=O)[C@H]23)OCO4)cc(OC)c1O | – | > 100 | – | 0
COC1=CC([C@@H]2c3cc4c(cc3[C@@H](Nc3cccc(F)c3)[C@H]3COC(=O)[C@@H]32)OCO4)=CC(=O)C1=O | 1.6 | 100 | 37 | –
CCOC(=O)c1ccc(N[C@@H]2c3cc4c(cc3[C@@H](C3=CC(=O)C(=O)C(OC)=C3)[C@H]3C(=O)OC[C@@H]32)OCO4)cc1 | 1.4 | 25 | 110 | –
COC1=CC([C@@H]2c3cc4c(cc3[C@H](O)[C@H]3COC(=O)[C@@H]32)OCO4)=CC(=O)C1=O | 1.9 | 10 | 4 | –
COC1=CC([C@@H]2c3cc4c(cc3[C@@H](Nc3ccccc3)[C@H]3COC(=O)[C@@H]32)OCO4)=CC(=O)C1=O | > 2 | 25 | 32 | –
COc1cc([C@@H]2c3cc4c(cc3[C@@H](Nc3ccc(Cl)cc3)[C@H]3COC(=O)[C@H]23)OCO4)cc(O)c1O | 2 | > 50 | 77 | –
COc1cc([C@@H]2c3cc4c(cc3[C@@H](Nc3ccc(C#N)cc3)[C@H]3COC(=O)[C@H]23)OCO4)cc(OC)c1O | 0.6 | – | – | 211
